As usually defined, the IC50 is the concentration that gives 50% inhibition. The AUC(0-t) is the area under the concentration-time curve up to a stated or last time point. A word on the Cmax: it is the maximum level reached in the sampled fluid or tissue. In general, Tmax refers to the time from dosing to the highest level. Usually half-life stands for how long it takes for the measured level to halve. A lower half-life goes with rapid decline.

Consider eleven compounds from patent US20250163016A1, “PYRIDINE DERIVATIVE, PREPARATION METHOD THEREFOR AND USE THEREOF” (CHENGDU EASTON BIOPHARMACEUTICALS CO., LTD., priority 2022, published 2025).

Structures are written as SMILES.

Data set [1] concerns Kasumi-1 cells. Kind of data set: Kasumi-1 cell proliferation inhibition test (Celltiter GLO). In kind it is cell-based. The settings on record: Homo sapiens, 168 h, Kasumi-1, 7 days culture. As to the method: (§1) Research had confirmed that LSD1 played a crucial role in the occurrence process of various types of cancers, including small cell lung cancer (SCLC) and acute myeloid leukemia (AML). Therefore, a human acute myeloid leukemia (Kasumi-1) cell line was used to determine the ATP content in cells at different drug concentrations using a Celltiter GLO assay kit, the cell activity was reflected by luminescence intensity, and IC50 values of different compounds on Kasumi-1 cells were calculated using inhibition rates. The inhibitory effects of the compounds in the present application on the proliferation of Kasumi-1 cells were studied to evaluate the anti-tumor efficacy of the tested compounds at the cellular level.
(§2) • Day 1 Cells were seeded into the 384-well cell culture plate and placed in a 37° C. 5% CO2 cell incubator to be cultured overnight. • Day 0 The compound to be tested was prepared into a 10 mM mother liquid using DMSO, starting from 1 M, diluted by 3 folds, with 10 concentration points and double duplicate wells. A diluted compound was added into the 384-well cell culture plate and placed in a 37° C. 5% CO2 cell incubator to be cultured for 7 days. The concentration of the DMSO in a cell culture system was 0.1 vol %. • Day 7 Celltiter GLO was added into the 384-well cell culture plate according to a volume ratio of culture system:Celltiter GLO=1:1, light-shielded oscillation was carried out on a plate oscillator for 3 min, then the cell culture plate was placed at the room temperature for 30 min with light shielded, and the plate was read using a multifunctional microplate reader chemical light emitting module.
An inhibition rate was calculated by utilizing luminescence intensity of the above DMSO group (with DMSO added), test group (with the tested compound or a positive control solution added) and blank group (not treating cells), and a calculation formula was as follows: […]
Using a logarithm of the concentration as an X axis and the percentage inhibition rate as a Y axis, a dose-response curve was fitted using a formula log(inhibitor) vs. response-Variable slope (Four parameters) of analysis software Graphpad Prism 8 to obtain the IC50 value of each compound on Kasumi-1 proliferation inhibition activity.
On the technique in general: ATP-based viability assays read luminescence as a measure of living cells.

Data set [2] has as its system NCI-H1417 cells. Kind of data set: NCI-H1417 cell proliferation inhibition test (Celltiter GLO). The data set is classed as cell-based. The settings on record: Homo sapiens, 168 h, NCI-H1417, 7 days culture. As for the experimental part:
as §1, with “small cell lung cancer (NCI-H1417)” for “acute myeloid leukemia (Kasumi-1)”, “kit, and” for “kit,”, “intensity.” for “intensity, and”, “the NCI-H1417” for “Kasumi-1”
as §2, with “μM,” for “M,”, “0.1%.” for “0.1 vol %.”
An inhibition percentage was calculated by utilizing luminescence intensity of the above DMSO group (with DMSO added), test group (with the tested compound and a positive control solution added) and blank group (not treating cells), a calculation formula being
Using a logarithm of the concentration as an X axis and the percentage inhibition rate as a Y axis, a dose-response curve was fitted using a formula log(inhibitor) vs. response-Variable slope (Four parameters) of analysis software Graphpad Prism 8 to obtain the IC50 value of each compound on NCI-H1417 proliferation inhibition activity.

Data set [3] has as its target T1, LSD1 (Homo sapiens, UniProt O60341).
T1 construct: purchased Active Motif 31432
Kind of data set: LSD1 activity test (HTRF). In kind it is biochemical. As to conditions: H3(1-21)K4 me1-biotin substrate, read-out: IC50, inhibitory activity on LSD1. As to the method:
In this test, a homogeneous time resolved fluorescence (HTRF) technology was utilized, and the inhibitory activity of compounds on LSD1 was detected by adopting a two-step method. The first step was to incubate LSD1, compounds of different concentrations, and a biotin-labeled methylated polypeptide substrate (H3(1-21)K4 me1-biotin) at the room temperature for fixed time.
A corresponding solution with a 1000-fold final concentration was formed by dilution in a 384-well Source plate, and then Echo550 was used for transferring 10 nL to a 384-well reaction plate for being tested.
An inhibition percentage was calculated using a maximum value, a minimum value, and a signal value (maximum value: fluorescence intensity of 5 μL of 2× enzyme solution+5 μL of 2× substrate mixed solution+10 nL of 100% DMSO+10 μL of detection solution; minimum value: fluorescence intensity of 5 μL of 1× reaction solution+5 μL of 2× substrate mixed solution+10 nL of 100% DMSO+10 μL of detection solution; and signal value: fluorescence intensity of 5 μL of 2× enzyme solution+5 μL of 2× substrate mixed solution+10 nL of diluted compound to be tested+10 μL of detection solution), and a calculation formula was as follows: […]
Using a logarithm of the concentration as an X axis and the percentage inhibition rate as a Y axis, a dose-response curve was fitted using a formula log(inhibitor) vs. response-Variable slope (Four parameters) of analysis software Graphpad Prism 5 to obtain the IC50 value of each compound on the enzyme activity.
A general note: In TR-FRET formats the signal depends on donor and acceptor labels being close together.

Data set [4] can be described thus: Pharmacokinetics of oral administration of rats. The data set is classed as in vivo. The settings on record: male, rat, SD rats, p.o. 5.0 mg/kg, plasma. As for the experimental part: With SD rats as tested animals, blood drug concentrations in plasma at different moments after oral administration of the compounds of the present application by the rats in a clarification kit mode were determined using an LC-MS/MS method. Pharmacokinetic parameters of the compounds of the present application in the rats were obtained, and pharmacokinetic characteristics of the compounds were studied.
• SD rats, male, weight 180-220 g, 3 rats per group. The animals were fed in an animal house after being purchased, an adaptation period was at least 3 days, and they were used for tests after passing quarantine.
According to Table 4, each group of rats was given the corresponding tested drugs or positive drugs by gavage, before administration, and 15 min, 30 min, 1 h, 2 h, 4 h, 6 h, 8 h, and 24 h after administration, a fixed volume of blood was collected through eye sockets and placed in an EDTA-K2 anticoagulant tube, centrifuging was carried out at 8000 rpm for 1 min to separate plasma into a centrifuge tube, and the plasma was frozen in a −20° C. refrigerator.
The plasma at each time point stored at −20° C. was taken out, then acetonitrile was added, after whirling at 1500 revolutions for 2 min, centrifuging was carried out for 15 min (3500 r/min), and a fixed volume of solution supernatant was taken for LC-MS/MS analysis.
Non-compartment model fitting was carried out on pharmacokinetic behaviors of the tested compounds, and DAS3.31 software was adopted to calculate main pharmacokinetic parameters (T1/2, Tmax, Cmax, AUClast, etc.).

Take `CC(C)(O)Cn1ncc2cc(-c3c(C#N)cc(N4CCCNCC4)nc3-c3ccc(C#N)c(F)c3)c(F)cc21` [Compound 21, 2-(4-cyano-3-fluorophenyl)-6-(1,4-diazaniline-1-yl)-3-(6-fluoro-1-(2-hydroxyl-2-methylpropyl)-1H-indazol-5-yl)isonicotinonitrile]: in data set [1], half-maximal inhibition (IC50) required 1.03 nM. This compound gave an IC50 in data set [2] of 6.51 nM. In addition, in data set [3], the IC50 worked out at 0.79 nM. In data set [4], the AUC(0-t) was found to be 721 ± 125 ng·h/mL, the peak level (Cmax) was 81.4 ± 17 ng/mL, the Tmax is 4.67 ± 1.15 h and the half-life is 2.84 ± 0.59 h.

For `COc1ccc(-c2c(C#N)cc(N3CCC(N)CC3)nc2-c2ccc(C#N)c(F)c2)cc1F` [Compound 1, 6-(4-aminopiperid-1-yl)-2-(4-cyano-3-fluorophenyl)-3-(3-fluoro-4-methoxyphenyl)isonicotinonitrile], the IC50 in data set [3] was determined as 2.1 nM. In addition, in data set [4], the AUC(0-t) is 1300 ± 411 ng·h/mL, the peak level (Cmax) was 93.9 ± 19.1 ng/mL, the Tmax was 6 h and the half-life was 7.64 ± 2.46 h.

As to `Cn1ncc2cc(-c3c(C#N)cc(N4CCC(N)CC4)nc3-c3ccc(C#N)c(F)c3)ccc21` [Compound 4, 6-(4-aminopiperid-1-yl)-2-(4-cyano-3-fluorophenyl)-3-(1-methyl-1H-indazol-5-yl)isonicotinonitrile], half-maximal inhibition in data set [1] (IC50) was put at 3.07 nM. For the same compound, in data set [2], the IC50 was found to be 16.7 nM. Moreover, the IC50 in data set [3] was determined as 0.47 nM. Besides, in data set [4], the AUC(0-t) stood at 712 ± 89.3 ng·h/mL, the Cmax worked out at 55 ± 7.72 ng/mL, the Tmax stood at 6 h and the half-life is 5.31 ± 0.24 h.

For the compound `COc1ccc(-c2c(C#N)cc(N3CCCNCC3)nc2-c2ccc(C#N)c(F)c2)cc1F` [Compound 15, 2-(4-cyano-3-fluorophenyl)-6-(1,4-diazacyclohepta-1-yl)-3-(3-fluoro-4-methoxyphenyl)isonicotinonitrile], the half-inhibitory concentration (IC50) in data set [3] turned out to be 2 nM. In addition, in data set [4], the AUC(0-t) came to 1550 ± 252 ng·h/mL, the concentration peaked (Cmax) at 125 ± 25.8 ng/mL, the Tmax stood at 6 h and the half-life was 5.73 ± 0.8 h.

Regarding `COc1ccc(-c2c(-c3ccc(C#N)c(F)c3)nc(N3CCC(N)CC3)c3c2CNC3=O)cc1F` [Compound 3, 4-(4-(4-aminopiperid-1-yl)-7-(3-fluoro-4-methoxyphenyl)-3-oxo-2,3-dihydro-1H-pyrrole[3,4-c]pyrid-6-yl)-2-fluorobenzonitrile], the IC50 in data set [3] worked out at 5.8 nM.

As to `Cn1ncc2cc(-c3c(C#N)cc(N4CCCNCC4)nc3-c3ccc(C#N)c(F)c3)ccc21` [Compound 20, 2-(4-cyano-3-fluorophenyl)-6-(1,4-diazaniline-1-yl)-3-(1-methyl-1H-indazol-5-yl)isonicotinonitrile], the IC50 in data set [3] came to 1.4 nM. Besides, in data set [4], the area under the curve AUC(0-t) is 1410 ± 293 ng·h/mL, the peak concentration (Cmax) was determined as 126 ± 23.9 ng/mL, the Tmax is 4.67 ± 1.15 h and the half-life is 4.66 ± 0.73 h.

In data set [1], `CN1C(=O)Cc2cc(-c3c(C#N)cc(N4CCC(N)CC4)nc3-c3ccc(C#N)c(F)c3)ccc21` [Compound 18, 6-(4-aminopiperid-1-yl)-2-(4-cyano-3-fluorophenyl)-3-(1-methyl-2-oxoindol-5-yl)isonicotinonitrile] returned an IC50 of 8.79 nM. Moreover, inhibition in data set [2] was half-maximal at 33.3 nM (IC50). Further, the IC50 in data set [3] came out at 1.5 nM. Moreover, in data set [4], the AUC(0-t) is 591 ± 292 ng·h/mL, the peak level (Cmax) was 77.2 ± 32.1 ng/mL, the Tmax came to 4 h and the half-life was 2.94 ± 0.11 h.

In the case of `Cn1ncc2cc(-c3c(-c4ccc(C#N)c(F)c4)nc(N4CCC(N)CC4)c4c3CNC4=O)ccc21` [Compound 8, 4-(4-(4-aminopiperid-1-yl)-7-(1-methyl-1H-indazol-5-yl)-3-oxo-2,3-dihydro-1H-pyrrole[3,4-c]pyrid-6-yl)-2-fluorobenzonitrile], the IC50 in data set [3] worked out at 6.5 nM.

`COc1ccc(-c2c(C#N)cc(N3CCC4(CCNC4)CC3)nc2-c2ccc(C#N)c(F)c2)cc1F` [Compound 29, 2-(4-cyano-3-fluorophenyl)-3-(3-fluoro-4-methoxyphenyl)-6-(2,8-diazaspiro[4.5]dec-8-yl)isonicotinonitrile]: the IC50 in data set [3] was 3.4 nM.

Regarding `COc1ccc(-c2c(C#N)cc(N3CCC4(CC3)CNC4)nc2-c2ccc(C#N)c(F)c2)cc1F` [Compound 22, 2-(4-cyano-3-fluorophenyl)-3-(3-fluoro-4-methoxyphenyl)-6-(2,7-diazaspiro[3.5]non-7-yl)isonicotinonitrile], the IC50 in data set [3] was determined as 6.2 nM.

Turning to `COc1ccc(-c2c(C#N)cc(C3CCC(N)CC3)nc2-c2ccc(C#N)c(F)c2)cc1F` (stereo not drawn) [Compound 14, 6-(4-aminocyclohexyl)-2-(4-cyano-3-fluorophenyl)-3-(3-fluoro-4-methoxyphenyl)isonicotinonitrile], the IC50 in data set [3] amounted to 8.9 nM. In data set [4], the AUC(0-t) turned out to be 1470 ± 44.6 ng·h/mL, the peak level (Cmax) was 130 ± 7.9 ng/mL, the Tmax was 4.67 ± 2.31 h and the half-life is 5.97 ± 0.29 h.
